Test results taken from paper PMC10812132 (Journal of biomolecular screening, 2010).
Values joined by “and” are separate entries in the source; they are usually repeats but may differ in a detail not shown here. Identical values can stand only once.

How the values were obtained:
[1] = tested on: Influenza A/Vietnam/1203/2004 (H5N1); type: cell-based, influenza A virus; conditions: 72 h
[2] = tested on: influenza A/Brisbane/59/2007 (H1N1) virus; type: cell-based

Compound: O=S(=O)(O)c1cc(O)c(N=Nc2ccc3cccc(S(=O)(=O)O)c3c2O)c2ccccc12 [SR 22859]
- SI values (SI = IC50/EC50) of screening hits [1]: > 13.8

Compound: CN(C)c1cccc(C(=O)Nc2ccc3nc4n(c(=O)c3c2)CCCCC4)c1 [compound 9551353]
- SI values (SI = IC50/EC50) of screening hits [1]: > 3.5

Compound: NC(=O)c1ncn([C@@H]2O[C@H](CO)[C@@H](O)[C@H]2O)n1 [ribavirin]
- Reduction in M1 RNA levels vs no-drug infected MDCK cells [2]: 1.3 fold and 1.9 fold

Compound: O=C(Nc1c(-c2ccccc2)nc2sccn12)c1ccccc1 [compound 786409]
- SI values (SI = IC50/EC50) of screening hits [1]: > 94.6
